Data set [1] concerns the target T1, D(4) dopamine receptor (Homo sapiens, UniProt P21917).
T1 sequence (P21917 whole entry): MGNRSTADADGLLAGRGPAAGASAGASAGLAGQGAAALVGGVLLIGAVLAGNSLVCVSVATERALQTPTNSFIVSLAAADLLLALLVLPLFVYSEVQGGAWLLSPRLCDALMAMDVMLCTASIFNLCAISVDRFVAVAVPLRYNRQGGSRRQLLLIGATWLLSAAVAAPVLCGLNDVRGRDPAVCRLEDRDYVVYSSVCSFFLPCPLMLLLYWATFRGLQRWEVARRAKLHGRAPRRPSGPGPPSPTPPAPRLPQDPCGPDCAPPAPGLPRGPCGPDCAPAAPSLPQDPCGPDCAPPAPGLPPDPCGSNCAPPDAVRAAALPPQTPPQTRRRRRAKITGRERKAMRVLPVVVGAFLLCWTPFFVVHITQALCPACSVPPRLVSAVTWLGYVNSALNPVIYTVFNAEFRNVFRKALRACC
Nature of the data set: DRUGMATRIX: Dopamine D4.2 radioligand binding (ligand: [3H] Spiperone). The class given is cell membranes, CHO-K1, Membrane. The note with it: cho-k1; Not Active = under 50% inhibition at 10 µM.

In data set [2] the target is Beta-3 adrenergic receptor (Homo sapiens, UniProt P13945). Put plainly: DRUGMATRIX: Adrenergic beta3 radioligand binding (ligand: [125I] Cyanopindolol). The data set is classed as cell membranes, HEK293, Membrane. The note with it: Not Active = under 50% inhibition at 10 µM.
Sequence of Beta-3 adrenergic receptor (P13945 whole entry): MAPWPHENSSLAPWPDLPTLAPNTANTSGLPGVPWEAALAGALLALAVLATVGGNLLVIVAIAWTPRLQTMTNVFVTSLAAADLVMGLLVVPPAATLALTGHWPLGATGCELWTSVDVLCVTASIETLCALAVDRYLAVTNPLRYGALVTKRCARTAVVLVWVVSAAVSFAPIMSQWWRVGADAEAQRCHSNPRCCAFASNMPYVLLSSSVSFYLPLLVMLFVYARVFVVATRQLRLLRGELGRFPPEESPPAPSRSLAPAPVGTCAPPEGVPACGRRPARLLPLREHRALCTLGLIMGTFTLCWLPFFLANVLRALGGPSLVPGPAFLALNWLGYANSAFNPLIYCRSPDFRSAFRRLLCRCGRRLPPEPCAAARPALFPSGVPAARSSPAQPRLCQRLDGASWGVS
In data set [3] the target is Receptor tyrosine-protein kinase erbB-2 (Homo sapiens, UniProt P04626). The data set is classed as cell-based. The following applies: insect cells.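 Also: inhibition of HER2 kinase enzyme activity, measured with Poly(Glu:Tyr) as the phosphorylation substrate; in other assays of this panel Not Active means under 50% inhibition at 10 µM.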
The target of data set [4] is Tyrosine-protein kinase Fyn (Homo sapiens, UniProt P06241). Put plainly: biochemical. The data set is classed as cell-based, Insect cells. The note with it: insect cells.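 Also: enzymatic inhibition of Fyn kinase activity measured with Poly(Glu:Tyr) as the phosphorylation substrate; in other assays of this panel Not Active means under 50% inhibition at 10 µM.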
Sequence of Tyrosine-protein kinase Fyn (P06241 whole entry): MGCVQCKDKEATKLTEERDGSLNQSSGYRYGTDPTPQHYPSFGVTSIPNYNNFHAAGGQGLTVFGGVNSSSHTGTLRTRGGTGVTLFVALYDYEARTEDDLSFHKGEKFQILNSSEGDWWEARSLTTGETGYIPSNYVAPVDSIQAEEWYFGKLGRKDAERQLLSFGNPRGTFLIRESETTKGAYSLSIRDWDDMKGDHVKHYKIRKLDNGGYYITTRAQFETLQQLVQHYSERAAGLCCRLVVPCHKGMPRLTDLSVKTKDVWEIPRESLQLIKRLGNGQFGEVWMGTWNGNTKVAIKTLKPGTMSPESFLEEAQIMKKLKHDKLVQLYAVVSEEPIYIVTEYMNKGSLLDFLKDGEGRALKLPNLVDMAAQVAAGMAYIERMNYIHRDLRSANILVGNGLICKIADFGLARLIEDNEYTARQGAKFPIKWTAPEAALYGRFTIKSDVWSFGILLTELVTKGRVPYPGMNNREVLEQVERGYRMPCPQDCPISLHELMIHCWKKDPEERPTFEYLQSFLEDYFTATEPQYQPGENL
Data set [5] deals with Cytochrome P450 2E1 (Homo sapiens, UniProt P05181). The note with it: bti-tn-5b1-4.
Sequence of Cytochrome P450 2E1 (P05181 whole entry): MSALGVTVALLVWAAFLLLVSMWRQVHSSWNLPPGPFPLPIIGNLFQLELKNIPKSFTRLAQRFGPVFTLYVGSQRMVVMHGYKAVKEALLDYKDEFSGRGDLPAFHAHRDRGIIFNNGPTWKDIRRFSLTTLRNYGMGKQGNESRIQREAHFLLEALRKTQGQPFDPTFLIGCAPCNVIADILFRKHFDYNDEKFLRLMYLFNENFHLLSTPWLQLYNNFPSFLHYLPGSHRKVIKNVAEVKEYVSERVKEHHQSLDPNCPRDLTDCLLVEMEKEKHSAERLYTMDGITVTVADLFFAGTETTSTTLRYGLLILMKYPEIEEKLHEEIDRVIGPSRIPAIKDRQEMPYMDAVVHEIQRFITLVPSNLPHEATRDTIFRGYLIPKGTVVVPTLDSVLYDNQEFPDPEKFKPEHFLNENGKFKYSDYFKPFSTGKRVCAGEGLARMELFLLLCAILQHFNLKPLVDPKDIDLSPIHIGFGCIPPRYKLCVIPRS
For data set [6], the target named is T2, C-X-C chemokine receptor type 2 (Homo sapiens, UniProt P25025). Also: in other assays of this panel Not Active means under 50% inhibition at 10 µM.
T2 sequence (P25025 whole entry): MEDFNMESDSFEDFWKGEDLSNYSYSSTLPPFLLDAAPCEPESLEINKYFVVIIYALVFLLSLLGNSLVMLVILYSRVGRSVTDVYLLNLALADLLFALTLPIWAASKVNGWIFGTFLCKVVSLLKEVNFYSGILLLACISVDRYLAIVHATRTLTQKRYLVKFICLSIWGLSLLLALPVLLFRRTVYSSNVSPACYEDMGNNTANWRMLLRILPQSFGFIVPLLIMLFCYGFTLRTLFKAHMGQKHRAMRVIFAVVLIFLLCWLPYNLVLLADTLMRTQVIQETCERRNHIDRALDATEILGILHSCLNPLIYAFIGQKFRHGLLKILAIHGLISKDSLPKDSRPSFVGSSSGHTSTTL
The class given is cell membranes, CHO-K1, Membrane. The note with it: cho-k1.

Data set [7] addresses T3, Progesterone receptor (Bos taurus, UniProt Q690N0).
T3 sequence (Q690N0 whole entry): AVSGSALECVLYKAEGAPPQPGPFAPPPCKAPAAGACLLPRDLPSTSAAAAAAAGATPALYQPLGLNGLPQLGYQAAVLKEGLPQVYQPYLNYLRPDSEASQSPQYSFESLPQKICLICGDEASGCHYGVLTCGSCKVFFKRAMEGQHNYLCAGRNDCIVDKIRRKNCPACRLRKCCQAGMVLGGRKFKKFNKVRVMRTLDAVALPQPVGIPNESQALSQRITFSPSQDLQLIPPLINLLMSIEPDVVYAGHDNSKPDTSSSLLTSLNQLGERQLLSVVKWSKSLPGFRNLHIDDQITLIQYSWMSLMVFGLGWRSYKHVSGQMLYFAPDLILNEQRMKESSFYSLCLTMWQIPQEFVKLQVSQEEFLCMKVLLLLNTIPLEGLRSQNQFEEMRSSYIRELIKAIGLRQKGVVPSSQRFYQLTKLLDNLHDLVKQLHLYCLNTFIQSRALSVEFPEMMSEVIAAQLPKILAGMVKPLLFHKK
Put plainly: DRUGMATRIX: Progesterone radioligand binding (ligand: [3H] R-5020). The class given is tissue-based, Uterus. The following applies: Not Active = under 50% inhibition at 10 µM.

In ChEMBL document CHEMBL1909046, “DrugMatrix in vitro pharmacology data” one finds IC50 and Ki data, which are given here for nine compounds.

Usually IC50 stands for the concentration that gives 50% inhibition. As usually defined, the Ki is a dissociation constant, usually derived from enzyme kinetics or from competition with a known ligand. On to `O=c1[nH]cnc2c1ncn2[C@H]1CC[C@@H](CO)O1` [DIDANOSINE], for which the IC50 result in data set [1], in data set [2] (hek293), in data set [3], in data set [4], in data set [5] and in data set [6] was “Not Active” in each case. Further, in data set [7], the IC50 result was “Not Active”. Besides, the Ki result in data set [5] is “Not Active”.

`CC1(COc2ccc(CC3SC(=O)NC3=O)cc2)CCCCC1` (stereo not given) [CIGLITAZONE]: the IC50 entry in data set [1] is “Not Active”; in data set [2] (read-out: IC50), 17.9 µM; in data set [3], “Not Active”; in data set [4], “Not Active”; in data set [5], “Not Active”; in data set [6], “Not Active”. In addition, the IC50 in data set [7] (read-out: IC50) turned out to be 29.1 µM. In addition, the Ki was 13.4 µM in data set [2] (read-out: Ki), “Not Active” in data set [5] and 3.8 µM in data set [7] (read-out: Ki).

On to `CC(=O)Nc1ccc2c(c1)Cc1ccccc1-2` [2-ACETYLAMINOFLUORENE], for which the IC50 entry in data set [1], in data set [2] (hek293), in data set [3], in data set [4], in data set [5] and in data set [6] was “Not Active” throughout. Further, the concentration for half-maximal inhibition (IC50) entry in data set [7] was “Not Active”. Further, in data set [5], the Ki result is recorded as “Not Active”.

In the case of `C[C@H](C(=O)O)c1ccc2oc(-c3ccc(F)cc3)nc2c1` [FLUNOXAPROFEN], the IC50 result in data set [1], in data set [2] (hek293), in data set [3], in data set [4], in data set [5] and in data set [6] was “Not Active” throughout. Further, the IC50 entry in data set [7] is given as “Not Active”. Further, the Ki result in data set [5] was “Not Active”.

Consider `CC(C)Cn1cnc2c(N)nc3ccccc3c21` [IMIQUIMOD], for which the IC50 result in data set [1], in data set [2] (hek293), in data set [3], in data set [4], in data set [5] and in data set [6] was “Not Active” each time. The IC50 entry in data set [7] is on record as “Not Active”. In addition, in data set [5], the Ki result is on record as “Not Active”.

With `OC[C@H]1OC2C3[C@@H](CO)OC(O[C@H]4[C@H](O)[C@@H](O)[C@@H](O[C@H]5[C@H](O)[C@@H](O)[C@@H](O[C@H]6[C@H](O)[C@@H](O)[C@@H](O[C@H]7[C@H](O)[C@@H](O)[C@@H](O[C@H]8[C@H](O)[C@@H](O)[C@@H](O[C@H]9[C@H](O)[C@@H](O)C(OC1[C@H](O)[C@H]2O)O[C@@H]9CO)O[C@@H]8CO)O[C@@H]7CO)O[C@@H]6CO)O[C@@H]5CO)O[C@@H]4CO)[C@H](O)[C@H]3O`, the IC50 entry in data set [1], in data set [2] (hek293), in data set [3], in data set [4], in data set [5] and in data set [6] was “Not Active” each time. Besides, the concentration for half-maximal inhibition (IC50) result in data set [7] is “Not Active”. Further, the inhibition constant (Ki) result in data set [5] is on record as “Not Active”.

`CCN1CCN(c2cc3c(cc2F)c(=O)c(C(=O)O)cn3C2CC2)CC1` [ENROFLOXACIN]: the 50% inhibitory concentration (IC50) result in data set [1], in data set [2] (hek293), in data set [3], in data set [4], in data set [5] and in data set [6] was “Not Active” in each case. The IC50 result in data set [7] is reported as “Not Active”. In addition, the Ki entry in data set [5] is “Not Active”.

For the compound POVIDONE, the IC50 entry in data set [1], in data set [2] (hek293), in data set [3], in data set [4], in data set [5] and in data set [6] was “Not Active” each time. The IC50 entry in data set [7] was “Not Active”. Further, the Ki result in data set [1], in data set [2] (hek293), in data set [3], in data set [4], in data set [5] and in data set [6] was “Not Active” each time. Further, the Ki entry in data set [7] is “Not Active”.

For the compound `C=C(Cl)Cl` [1,1-DICHLOROETHENE], the IC50 entry in data set [1], in data set [2] (hek293), in data set [3], in data set [4], in data set [5] and in data set [6] was “Not Active” in each case. For the same compound, the IC50 entry in data set [7] is “Not Active”. Moreover, the Ki result in data set [5] is given as “Not Active”.
